# Values quoted from earlier work as cited in US8653026B2, “Treatment of type 2 diabetes with FTY720” (Diapin Therapeutics LLC, priority 2011, dated 2014).
# Experiments:
# Settings in all cases: literature reference (25); cited from earlier work
# S1P4 = target: T1, S1P4 (Homo sapiens, UniProt O95977)
# T1 sequence (O95977 1-384): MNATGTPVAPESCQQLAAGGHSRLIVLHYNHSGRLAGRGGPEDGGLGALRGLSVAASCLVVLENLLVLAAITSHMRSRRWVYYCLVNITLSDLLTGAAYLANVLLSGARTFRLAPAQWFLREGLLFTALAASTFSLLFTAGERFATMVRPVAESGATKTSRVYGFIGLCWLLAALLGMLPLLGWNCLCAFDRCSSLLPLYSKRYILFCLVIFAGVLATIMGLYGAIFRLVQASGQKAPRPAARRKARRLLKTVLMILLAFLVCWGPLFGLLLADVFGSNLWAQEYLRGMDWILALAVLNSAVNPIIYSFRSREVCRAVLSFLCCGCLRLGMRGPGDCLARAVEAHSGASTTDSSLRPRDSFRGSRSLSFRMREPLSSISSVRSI
# S1P2 = S1P2 (Homo sapiens, UniProt O95136)
# S1P2, sequence (O95136 whole entry, species assumed): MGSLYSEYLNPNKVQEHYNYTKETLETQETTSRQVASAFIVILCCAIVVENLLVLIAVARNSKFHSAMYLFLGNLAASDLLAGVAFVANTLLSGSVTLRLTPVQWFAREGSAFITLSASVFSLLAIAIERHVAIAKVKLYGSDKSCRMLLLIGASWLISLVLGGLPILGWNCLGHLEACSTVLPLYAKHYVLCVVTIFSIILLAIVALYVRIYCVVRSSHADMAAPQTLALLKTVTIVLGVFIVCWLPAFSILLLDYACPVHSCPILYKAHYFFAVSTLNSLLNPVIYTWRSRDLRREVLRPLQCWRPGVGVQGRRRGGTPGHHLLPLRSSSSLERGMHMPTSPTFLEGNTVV
# S1P3 = S1P3 (Homo sapiens, UniProt Q99500)
# S1P3, sequence (Q99500 whole entry, species assumed): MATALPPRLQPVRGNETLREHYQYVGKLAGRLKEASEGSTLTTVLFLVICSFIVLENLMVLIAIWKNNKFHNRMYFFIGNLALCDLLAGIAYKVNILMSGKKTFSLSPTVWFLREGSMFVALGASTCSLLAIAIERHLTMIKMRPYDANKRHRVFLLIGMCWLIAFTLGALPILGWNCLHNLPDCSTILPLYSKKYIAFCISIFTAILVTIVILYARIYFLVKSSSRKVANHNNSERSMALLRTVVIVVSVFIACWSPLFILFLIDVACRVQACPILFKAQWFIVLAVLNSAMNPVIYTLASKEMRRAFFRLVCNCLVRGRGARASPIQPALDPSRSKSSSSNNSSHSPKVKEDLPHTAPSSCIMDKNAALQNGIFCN
# S1P5 = S1P5 (Homo sapiens, UniProt Q9H228)
# S1P5, sequence (Q9H228 whole entry, species assumed): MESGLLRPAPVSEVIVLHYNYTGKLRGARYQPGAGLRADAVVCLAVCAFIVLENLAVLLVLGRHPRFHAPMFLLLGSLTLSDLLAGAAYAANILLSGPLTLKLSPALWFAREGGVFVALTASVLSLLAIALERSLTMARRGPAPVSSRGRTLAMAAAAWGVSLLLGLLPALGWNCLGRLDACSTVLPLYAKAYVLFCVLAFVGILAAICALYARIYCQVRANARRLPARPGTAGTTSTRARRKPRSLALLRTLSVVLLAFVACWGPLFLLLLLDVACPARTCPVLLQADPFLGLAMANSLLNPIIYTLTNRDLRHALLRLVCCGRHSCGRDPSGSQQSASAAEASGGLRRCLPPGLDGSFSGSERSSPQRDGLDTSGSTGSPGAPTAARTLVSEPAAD
# S1P1 = S1P1 (Homo sapiens, UniProt P21453)
# S1P1, sequence (P21453 whole entry, species assumed): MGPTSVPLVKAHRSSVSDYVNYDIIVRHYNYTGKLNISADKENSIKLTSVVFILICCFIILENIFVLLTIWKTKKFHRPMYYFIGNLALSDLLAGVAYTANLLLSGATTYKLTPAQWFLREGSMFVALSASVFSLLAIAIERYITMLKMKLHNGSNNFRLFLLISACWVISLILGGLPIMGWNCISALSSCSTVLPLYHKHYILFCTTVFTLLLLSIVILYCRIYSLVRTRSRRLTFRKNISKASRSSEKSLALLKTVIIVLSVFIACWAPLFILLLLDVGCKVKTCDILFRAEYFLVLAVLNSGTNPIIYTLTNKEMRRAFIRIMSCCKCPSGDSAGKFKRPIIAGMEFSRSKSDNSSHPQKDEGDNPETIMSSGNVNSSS
smiles,measurement,setting,value
"CCCCCCCCc1ccc(CCC(N)(CO)COP(=O)(O)O)cc1 (centres unmarked) [FTY720-P, 2-amino-2-(hydroxymethyl)-4-(4-octylphenyl)butyl dihydrogen phosphate]",binding to S1P4,S1P4,binds
same,binding to S1P2,S1P2,but not S1P2
same,binding to S1P3,S1P3,binds
same,binding to S1P5,S1P5,binds
same,binding to S1P1,S1P1,binds
